Legend:
V1a = V1a (Homo sapiens, UniProt P37288); test: In-vitro receptor binding assay (3H-arginine-8-vasopressin), V1a; details: for inhibition at 0.1 µM / inhibition at 1 µM: read-out: Receptor Binding V1a (% Inh. @ concentration in μM)
Description: (§1) (A) In-Vitro Binding Assay […] The reaction plates are allowed to sit at room temperature for one hour. The samples are filtered through Unifilter GF/C plates (presoaked in 0.3 polyethyleneimine). The plates are washed 5 times with cold physiological saline containing 0.05% Tween 20. After drying, the bottom of the filter plates are sealed and 0.025 ml of Microscint-20 is added to each filter. The top of the plate is sealed, and the plate is counted. Non-specific binding is determined by the addition of 1.25 μM […]-vasopressin in those wells. % Inh. is calculated as follows: […]

human V2 receptor = human V2 receptor (Homo sapiens, UniProt P30518); test: In-vitro receptor binding assay (3H-arginine-8-vasopressin), V2; details: for inhibition at 1 µM / inhibition at 0.25 µM / inhibition at 0.225 µM: read-out: Receptor Binding V2 (% Inh. @ concentration in μM)
Description: as §1

Sequence of V1a (P37288 whole entry): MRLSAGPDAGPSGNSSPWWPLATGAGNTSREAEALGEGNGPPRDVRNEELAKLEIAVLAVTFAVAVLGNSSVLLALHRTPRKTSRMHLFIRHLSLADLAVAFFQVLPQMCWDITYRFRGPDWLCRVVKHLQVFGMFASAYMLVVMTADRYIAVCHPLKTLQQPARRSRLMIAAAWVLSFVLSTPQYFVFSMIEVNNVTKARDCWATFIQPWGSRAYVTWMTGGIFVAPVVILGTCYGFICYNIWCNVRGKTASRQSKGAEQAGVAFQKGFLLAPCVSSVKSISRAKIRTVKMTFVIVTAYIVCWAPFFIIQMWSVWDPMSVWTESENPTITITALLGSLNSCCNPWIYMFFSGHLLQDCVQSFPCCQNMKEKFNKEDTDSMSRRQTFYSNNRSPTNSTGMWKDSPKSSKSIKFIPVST
Sequence of human V2 receptor (P30518 whole entry): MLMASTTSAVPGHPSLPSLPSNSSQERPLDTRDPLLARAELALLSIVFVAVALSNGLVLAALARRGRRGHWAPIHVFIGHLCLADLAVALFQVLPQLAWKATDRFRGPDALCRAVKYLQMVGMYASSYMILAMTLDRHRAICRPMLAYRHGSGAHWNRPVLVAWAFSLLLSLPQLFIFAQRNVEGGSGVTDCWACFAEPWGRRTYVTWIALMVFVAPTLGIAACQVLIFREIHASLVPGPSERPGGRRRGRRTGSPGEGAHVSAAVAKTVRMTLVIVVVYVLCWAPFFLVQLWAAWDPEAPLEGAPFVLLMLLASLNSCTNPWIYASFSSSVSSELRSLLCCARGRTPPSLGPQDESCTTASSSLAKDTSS

Row | SMILES | IC50 (V1a) | inhibition at 1 µM (human V2 receptor) | further results
1 | O=Cc1ccn(-c2ccc(C(=O)N3CCC4(C=CCCC4)Cc4ccccc43)cc2)c1 (stereo not drawn) [Compound 152] | 0.084 µM | 13% | –
2 | COc1ccc(C(=O)N2Cc3ccccc3CC3(C=CCCC3)C2)cc1OC (stereo not drawn) [Compound 153] | 0.55 µM | 0% | –
3 | O=C(c1ccc(-n2ccc(CO)c2)cc1)N1CCC2(C=CCCC2)Cc2ccccc21 (stereo not drawn) [Compound 154] | 0.025 µM | 36% | –
4 | O=C(c1ccc(-n2cccn2)c(-n2cccn2)c1)N1CCC2(C=CCCC2)Cc2ccccc21 (stereo not drawn) [Compound 155] | 0.13 µM | 2% | –
5 | O=C(c1ccc(-n2cccn2)c(F)c1)N1CCC2(C=CCCC2)Cc2ccccc21 (stereo not drawn) [Compound 156, 4-(3-Fluoro-4-(pyrazol-1-yl)benzoyl)-4-aza-[6,5]-spiro-[5,6]-benzododec-2′-ene] | 0.11 µM | 13% | –
6 | Cc1ccc(F)cc1C(=O)Nc1ccc(C(=O)N2CCC3(C=C(C(=O)NCCCN4CCCC4)CC3)Cc3ccccc32)cc1 (stereo not drawn) [Compound 157] | 0.016 µM | – | IC50 (human V2 receptor): 0.038 µM
7 | Cc1ccc(F)cc1C(=O)Nc1ccc(C(=O)N2CCC3(C=C(C(=O)NCCCN4CCOCC4)CC3)Cc3ccccc32)cc1 (stereo not drawn) [Compound 158] | 0.016 µM | – | IC50 (human V2 receptor): 0.039 µM
8 | Cc1ccc(F)cc1C(=O)Nc1ccc(C(=O)N2CCC3(C=C(C(=O)NCCO)CC3)Cc3ccccc32)cc1 (stereo not drawn) [Compound 159] | 0.011 µM | – | IC50 (human V2 receptor): 0.047 µM
9 | Cc1ccc(F)cc1C(=O)Nc1ccc(C(=O)N2CCC3(C=C(C(=O)NCCN4CCCCC4)CC3)Cc3ccccc32)cc1 (stereo not drawn) [Compound 160] | 0.011 µM | – | IC50 (human V2 receptor): 0.082 µM
10 | Cc1ccc(F)cc1C(=O)Nc1ccc(C(=O)N2CCC3(C=C(C(=O)NCCN4CCCC4)CC3)Cc3ccccc32)cc1 (stereo not drawn) [Compound 161] | 0.01 µM | – | IC50 (human V2 receptor): 0.072 µM
11 | CCOC(=O)C1=CC2(CC1)CCN(C(=O)c1ccc(NC(=O)c3ccccc3C)cc1)c1ccccc1C2 (stereo not drawn) [Compound 162] | 0.069 µM | – | inhibition at 0.25 µM (human V2 receptor): 42%
12 | O=C(c1ccc(-n2ccc(CO)c2)cc1Cl)N1CCC2(C=CCCC2)Cc2ccccc21 (stereo not drawn) [Compound 164] | 0.114 µM | – | inhibition at 0.25 µM (human V2 receptor): 20%
13 | COc1cc(-n2ccc(CO)c2)ccc1C(=O)N1CCC2(C=CCCC2)Cc2ccccc21 (stereo not drawn) [Compound 165] | 0.042 µM | – | inhibition at 0.25 µM (human V2 receptor): 25%
14 | COc1cc(-n2ccc(C=O)c2)ccc1C(=O)N1CCC2(C=CCCC2)Cc2ccccc21 (stereo not drawn) [Compound 166] | 0.114 µM | – | inhibition at 0.225 µM (human V2 receptor): 5%
15 | COc1cc(C(=O)N2CCC3(C=CCCC3)Cc3ccccc32)ccc1-n1ccc(C=O)c1 (stereo not drawn) [Compound 167, 4-(3-Methoxy-4-(pyrrol-1-yl-3-carboxaldehyde)benzoyl)-4-aza-[6,5]-spiro-[5,6]-benzododec-2′-ene] | 0.06 µM | – | inhibition at 0.225 µM (human V2 receptor): 19%
16 | CC(=O)N1CCC(Oc2ccc(C(=O)N3CCC4(C=CCCC4)Cc4ccccc43)cc2F)CC1 (stereo not drawn) [Compound 168, 4-(3-Fluoro-4-(N-acetylpiperidin-4-yloxy)benzoyl)-4-aza-[6,5]-spiro-[5,6]-benzododec-2′-ene] | – | 0% | inhibition at 0.1 µM (V1a): 50%
17 | COC(=O)CN1CCC(Oc2ccc(C(=O)N3CCC4(C=CCCC4)Cc4ccccc43)cc2F)CC1 (stereo not drawn) [Compound 169] | – | 0% | inhibition at 0.1 µM (V1a): 4%
18 | COc1cc(NC(=O)c2cc(F)ccc2C)ccc1C(=O)N1CCC2(C=C(C=O)CC2)Cc2ccccc21 (stereo not drawn) [Compound 170] | 0.055 µM | – | IC50 (human V2 receptor): 0.21 µM

Row | SMILES | IC50 (V1a) | inhibition at 1 µM (human V2 receptor) | further results
19 | CCCCN1CCC(Oc2ccc(C(=O)N3CCC4(C=CCCC4)Cc4ccccc43)cc2F)CC1 (stereo not drawn) [Compound 171] | – | 65% | inhibition at 0.1 µM (V1a): 24%
20 | CC(=O)Oc1ccc(C(=O)N2CCC3(C=CCCC3)Cc3ccccc32)cc1 (stereo not drawn) [Compound 172] | – | 0% | inhibition at 0.1 µM (V1a): 15%
21 | CC(C)CCN1CCC(Oc2ccc(C(=O)N3CCC4(C=CCCC4)Cc4ccccc43)cc2F)CC1 (stereo not drawn) [Compound 173] | – | 0% | inhibition at 0.1 µM (V1a): 0%
22 | CCCCC(=O)N1CCC(Oc2ccc(C(=O)N3CCC4(C=CCCC4)Cc4ccccc43)cc2F)CC1 (stereo not drawn) [Compound 174] | – | 8% | inhibition at 0.1 µM (V1a): 0%
23 | COc1cc(NC(=O)c2cc(F)ccc2C)ccc1C(=O)N1CCC2(C=C(C(=O)O)CC2)Cc2ccccc21 (stereo not drawn) [Compound 175] | – | – | inhibition at 0.1 µM (V1a): 15%; IC50 (human V2 receptor): 0.11 µM
24 | CC(=O)c1ccn(-c2ccc(C(=O)N3CCC4(C=CCCC4)Cc4ccccc43)cc2F)c1 (stereo not drawn) [Compound 177] | 0.044 µM | 30% | –
25 | COc1cc(C(=O)N2CCC3(C=CCCC3)Cc3ccccc32)ccc1-n1ccc(CO)c1 (stereo not drawn) [Compound 178, 4-[3-Methoxy-4-(3-hydroxymethylpyrrol-1-yl)benzoyl]-4-aza-[6,5]-spiro-[5,6]benzododec-2′-ene] | 0.013 µM | 53% | –
26 | CC(C)CCOc1ccc(C(=O)N2CCC3(C=CCCC3)Cc3ccccc32)cc1 (stereo not drawn) [Compound 179] | 0.096 µM | 15% | –
27 | O=C(c1ccc(OC2CCCC2)cc1)N1CCC2(C=CCCC2)Cc2ccccc21 (stereo not drawn) [Compound 180] | 0.088 µM | 20% | –
28 | O=C(c1ccc(OCC2CC2)cc1)N1CCC2(C=CCCC2)Cc2ccccc21 (stereo not drawn) [Compound 181] | 0.066 µM | 31% | –
29 | COc1cc(C(=O)N2CCC3(C=CCCC3)Cc3ccccc32)ccc1NC(=O)c1cc(F)ccc1C (stereo not drawn) [Compound 182] | 0.062 µM | – | IC50 (human V2 receptor): 0.228 µM
30 | O=C(c1ccc(OCC2CCCCC2)cc1)N1CCC2(C=CCCC2)Cc2ccccc21 (stereo not drawn) [Compound 183] | 0.25 µM | 18% | –
31 | O=C(c1ccc(OCc2ccccc2)cc1)N1CCC2(C=CCCC2)Cc2ccccc21 (stereo not drawn) [Compound 184] | 0.086 µM | 34% | –
32 | O=C(c1ccc(OC2CCCCC2)cc1)N1CCC2(C=CCCC2)Cc2ccccc21 (stereo not drawn) [Compound 185] | 0.23 µM | 42% | –
33 | COc1cc(C(=O)N2CCC3(C=C(C(=O)NCCN(C)C)CC3)Cc3ccccc32)ccc1[N+](=O)[O-] (stereo not drawn) [Compound 186, 4-(3-Methoxy-4-nitrobenzoyl)-4-aza-3′-[2-(N,N-dimethylamino)ethylcarboxamido]-[6,4]-spiro-[5,6]benzoundec-2′-ene] | – | 11% | inhibition at 1 µM (V1a): 48%
34 | COc1cc(C(=O)N2CCC3(C=C(C(=O)NCCN(C)C)CC3)Cc3ccccc32)ccc1N (stereo not drawn) [Compound 187, 4-(4-Amino-3-methoxybenzoyl)-4-aza-3′-[2-(N,N-dimethylamino)ethylcarboxamido]-[6,4]-spiro-[5,6]-benzoundec-2′-ene] | – | 7% | inhibition at 1 µM (V1a): 54%
35 | CCN(C(=O)NCCCN(C)C)C(=O)C1=CC2(CC1)CCN(C(=O)c1ccc(N)c(OC)c1)c1ccccc1C2 (stereo not drawn) [Compound 188] | – | 3% | inhibition at 1 µM (V1a): 27%
36 | COc1cc(C(=O)N2CCC3(C=C(C(=O)NCCN(C)C)CC3)Cc3ccccc32)ccc1-n1ccc(C=O)c1 (stereo not drawn) [Compound 189, 4-[3-Methoxy-4-(pyrrol-1-yl-3-carboxaldehyde)benzoyl]-3′-[2-(N,N-dimethylamino)ethylcarboxamido]-4-aza-[6,4]-spiro-[5,6]-benzoundec-2′-ene] | 0.045 µM | 13% | –
